Converted amounts (≈) assume the structure as drawn. Read-outs that look alike come from different tables or passages of the source.
How the values were obtained:
[1] = test system: mouse macrophage RAW 264.7 cells
in vitro = conditions: mouse
[2] = test system: Mycobacterium tuberculosis H37Rv (ATCC27294); experiment: microbe, parasite or virus in culture; format: cell-based
[3] = test system: M. tuberculosis H37Rv nutrient-starved culture; format: cell-based, Mycobacterium tuberculosis
[4] = RAW 264.7 cells, 50 μg/mL, 48 hr, MTT
[5] = Mycobacterium tuberculosis, ATCC27294|H37RV

SMILES	% cell inhibition at 50 μg/mL [1, 4] [%]	IC50 (in vitro) [mg/L]	MIC ([2]; Mtb H37Rv, repeated in Table 2) [mg/L]	MIC [2, 5] [mg/L]	further results
O=C(CCNS(=O)(=O)c1ccc([N+](=O)[O-])cc1[N+](=O)[O-])N1CCN(C(c2ccc(F)cc2)c2ccc(F)cc2)CC1 [7l, N-(3-(4-(Bis(4-fluorophenyl)methyl)piperazin-1-yl)-3-oxopropyl)-2,4-dinitrobenzene Sulfonamide]	60.2	> 50	0.78 (≈ 1.32 µM)	0.78 (≈ 1.32 µM)	
O=C(C1CCCN(S(=O)(=O)c2ccc([N+](=O)[O-])cc2[N+](=O)[O-])C1)N1CCN(C(c2ccccc2)c2ccccc2)CC1 (stereo not shown) [7s, (4-Benzhydrylpiperazin-1-yl) (1-((2,4-Dinitrophenyl)sulfonyl)piperidin-3-yl)methanone]	59.2	> 50	0.78 (≈ 1.31 µM)	0.78 (≈ 1.31 µM)	
O=C(C1CCN(S(=O)(=O)c2ccc([N+](=O)[O-])cc2[N+](=O)[O-])C1)N1CCN(C(c2ccccc2)c2ccccc2)CC1 (stereo not shown) [7y, (4-Benzhydrylpiperazin-1-yl) (1-((2,4-Dinitrophenyl)sulfonyl)pyrrolidin-3-yl)methanone]	59.6	> 50	0.78 (≈ 1.35 µM)	0.78 (≈ 1.35 µM)	
O=C(C1CCN(S(=O)(=O)c2ccc([N+](=O)[O-])cc2[N+](=O)[O-])CC1)N1CCN(C(c2ccccc2)c2ccccc2)CC1 [7o, (4-Benzhydrylpiperazin-1-yl) (1-((2,4-dinitrophenyl)sulfonyl)piperidin-4-yl)methanone]	57.2	> 50	0.78 (≈ 1.31 µM)	0.78 (≈ 1.31 µM)	
O=C(C1CCCN(S(=O)(=O)c2ccc([N+](=O)[O-])cc2[N+](=O)[O-])C1)N1CCN(C(c2ccc(F)cc2)c2ccc(F)cc2)CC1 (stereo not shown) [7v, (4-(Bis(4-fluorophenyl)methyl)piperazin-1-yl) (1-((2,4-Dinitrophenyl)sulfonyl)piperidin-3-yl)methanone]	55.7	> 50	0.78 (≈ 1.24 µM)	0.78 (≈ 1.24 µM)	
O=C(C1CCCN(S(=O)(=O)c2ccc([N+](=O)[O-])cc2)C1)N1CCN(C(c2ccccc2)c2ccccc2)CC1 (stereo not shown) [7u, (4-Benzhydrylpiperazin-1-yl) (1-((4-Nitrophenyl)sulfonyl)piperidin-3-yl)methanone]				> 25	
O=C(C1CCN(S(=O)(=O)c2ccc([N+](=O)[O-])cc2)CC1)N1CCN(C(c2ccccc2)c2ccccc2)CC1 [7q, (4-Benzhydrylpiperazin-1-yl) (1-((4-Nitrophenyl)sulfonyl)piperidin-4-yl)methanone]				> 25	
O=C(CCNS(=O)(=O)c1ccc([N+](=O)[O-])cc1[N+](=O)[O-])N1CCN(C(c2ccccc2)c2ccccc2)CC1 [7k, N-(3-(4-Benzhydrylpiperazin-1-yl)-3-oxopropyl)-2,4-dinitrobenzenesulfonamide]	61.4	> 50	0.78 (≈ 1.41 µM)	0.78 (≈ 1.41 µM)	
O=C(CNS(=O)(=O)c1ccc([N+](=O)[O-])cc1[N+](=O)[O-])N1CCN(C(c2ccccc2)c2ccccc2)CC1 [7g, N-(2-(4-Benzhydrylpiperazin-1-yl)-2-oxoethyl)-2,4-dinitrobenzenesulfonamide]				12.5 (≈ 23.2 µM)	
O=[N+]([O-])c1ccc(S(=O)(=O)N2CCN(C(c3ccc(F)cc3)c3ccc(F)cc3)CC2)cc1 [7f, 1-(Bis(4-fluorophenyl)methyl)-4-((4-nitrophenyl)sulfonyl)piperazine]				> 25	
O=C(CCCNS(=O)(=O)c1ccc([N+](=O)[O-])cc1[N+](=O)[O-])N1CCN(C(c2ccc(F)cc2)c2ccc(F)cc2)CC1 [7aa, N-(4-(4-(Bis(4-fluorophenyl)methyl)piperazin-1-yl)-4-oxobutyl)-2,4-dinitrobenzene Sulfonamide]	59.2	> 50	0.78 (≈ 1.29 µM)	0.78 (≈ 1.29 µM)	
O=C(C1CCN(S(=O)(=O)c2ccccc2[N+](=O)[O-])CC1)N1CCN(C(c2ccccc2)c2ccccc2)CC1 [7p, (4-Benzhydrylpiperazin-1-yl) (1-((2-Nitrophenyl)sulfonyl)piperidin-4-yl)methanone]				> 25	
O=[N+]([O-])c1ccccc1S(=O)(=O)N1CCN(C(c2ccc(F)cc2)c2ccc(F)cc2)CC1 [7e, 1-(Bis(4-fluorophenyl)methyl)-4-((2-nitrophenyl)sulfonyl)piperazine]				> 25	
O=C(C1CCCN(S(=O)(=O)c2ccccc2[N+](=O)[O-])C1)N1CCN(C(c2ccccc2)c2ccccc2)CC1 (stereo not shown) [7t, (4-Benzhydrylpiperazin-1-yl) (1-((2-Nitrophenyl)sulfonyl)piperidin-3-yl)methanone]				> 25	
NNC(=O)c1ccncc1 [Isoniazid, reference compound]	97	> 25	0.05 (≈ 0.365 µM)		
CC[C@@H](CO)NCCN[C@@H](CC)CO [Ethambutol, reference compound]				1.56 (≈ 7.64 µM)	
CO[C@H]1/C=C/O[C@@]2(C)Oc3c(C)c(O)c4c(O)c(c(/C=N/N5CCN(C)CC5)c(O)c4c3C2=O)NC(=O)/C(C)=C\C=C\[C@H](C)[C@H](O)[C@@H](C)[C@@H](O)[C@@H](C)[C@H](OC(C)=O)[C@@H]1C [Rifampicin, reference compound]	90	> 25	0.1 (≈ 0.122 µM)	0.1 (≈ 0.122 µM)	MIC ([2]; Mtb H37Rv strain, triplicate, Table 1 and text): 0.10 mg/L (≈ 0.122 µM)
O=[N+]([O-])c1ccc(S(=O)(=O)N2CCN(C(c3ccccc3)c3ccccc3)CC2)c([N+](=O)[O-])c1 [7a, 1-Benzhydryl-4-((2,4-dinitrophenyl)sulfonyl)piperazine]	57.6	> 50	1.56 (≈ 3.23 µM)	1.56 (≈ 3.23 µM)	
O=[N+]([O-])c1ccccc1S(=O)(=O)N1CCN(C(c2ccccc2)c2ccccc2)CC1 [7b, 1-Benzhydryl-4-((2-nitrophenyl)sulfonyl)piperazine]				> 25	
O=[N+]([O-])c1ccc(S(=O)(=O)N2CCN(C(c3ccc(F)cc3)c3ccc(F)cc3)CC2)c([N+](=O)[O-])c1 [7d, 1-(Bis(4-fluorophenyl)methyl)-4-((2,4-dinitrophenyl)sulfonyl)piperazine]				> 25	
O=C(C1CCN(S(=O)(=O)c2ccc([N+](=O)[O-])cc2[N+](=O)[O-])CC1)N1CCN(C(c2ccc(F)cc2)c2ccc(F)cc2)CC1 [7r, (4-(Bis(4-fluorophenyl)methyl)piperazin-1-yl) (1-((2,4-Nitrophenyl)sulfonyl)piperidin-4-yl)methanone]					% cell inhibition at 50 μg/mL [1]: 57.2%; IC50 approximation [1]: >50 mg/L; MIC [2]: 1.56 mg/L (≈ 2.48 µM); nutrient starvation (log reduction) [3]: 2.2 folds
O=[N+]([O-])c1ccc(S(=O)(=O)N2CCN(C(c3ccccc3)c3ccccc3)CC2)cc1 [7c, 1-Benzhydryl-4-((4-nitrophenyl)sulfonyl)piperazine]				> 25	
